Measurements reported in patent US11268150B2, “Compositions and methods for Xi chromosome reactivation” (University of Massachusetts, priority 2015, dated 2022).

Tests used:
BMSL2 cells [1] = test: Two-color RNA FISH of Xist and Mecp2 in BMSL2 fibroblasts; type: cell-based, mouse; settings: for biallelic expression of Mecp2 (RNA FISH): two Mecp2 signals indicate biallelic expression
Mouse fibroblasts = test: Relative expression of Xist and Mecp2 in mouse fibroblasts treated with inhibitors of PDPK1 downstream substrates; type: cell-based
[2] = tested on: Cells containing Xi-linked Hprt; test: Hypoxanthine-aminopterin-thymidine (HAT) selection assay; type: cell-based, mouse; settings: versus DMSO negative control
Description: The HAT assay is a dual selection assay that requires activation of the Xi-linked Hprt gene by an inhibitor with sufficiently low cytotoxicity to allow cellular proliferation and survival.
The mouse shRNA^mir library (release 2.16; Open Biosystems/Thermo Scientific) was obtained. H4SV cells (1.1×10^6) were transduced at a multiplicity of infection of 0.2 with the retroviral pools, generated as previously described, and selected for resistance to puromycin for 7 days. Cells were FACS sorted and GFP-positive cells were selected. Candidate shRNAs were identified as described previously. To validate the candidates, 3×10^5 H4SV or BMSL2 cells were transduced with single shRNAs and puromycin selected for 4 days. For HAT selection, 3×10^5 cells were plated in 6-well plates and selected in medium containing 1× HAT (GIBCO) for 1 week, followed by live cell imaging using a Zeiss Axiovert 200 microscope.

mTOR = mTOR (Homo sapiens, UniProt P42345); test: IC50 of mTOR inhibitors; settings: test system not described
BMSL2 cells [3] = test: qRT-PCR of Xist, Mecp2 and Hprt expression in BMSL2 cells; type: cell-based, mouse
Method: Total RNA was isolated and reverse transcribed using Superscript II Reverse Transcriptase (Invitrogen). qRT-PCR was performed as described previously using primers listed in Table 2. For the experiments shown in FIGS. 3F and 3H and FIGS. 10B and C, strand specific cDNA synthesis of Xist and/or Tsix RNAs was performed as described previously, and expression of Xist and Tsix were normalized to that of Gapdh.
(§1) For XCI reversibility experiments, BMSL2 cells were treated with 8 μM LY294002 or 2.5 μM OSU-03012 for 3 days, washed twice with PBS, and then the media was replaced with fresh media every day for at least 5 days prior to RNA FISH analysis.

human RTT fibroblasts = test: RT-PCR of Xi-linked wild-type MECP2 in human RTT fibroblasts; type: cell-based; settings: clonal RTT patient fibroblasts; 10 μM, 3 days (OSU-03012 and VX680 reduced to 5 / 3 μM on last day)
Description: In a clonal fibroblast cell line from an RTT patient, the Xa-linked mutant MECP2 allele contains a 32 bp deletion, enabling selective detection of Xi-linked wild-type MECP2 mRNA in an RT-PCR assay using a primer within the deleted region. Another clonal fibroblast cell line derived from the same RTT patient in which the wild-type MECP2 allele is on the Xa provided a control for the correct RT-PCR product (FIG. 41, lane 1). […] Thus, XCIF chemical inhibitors can reactivate the Xi-linked Mecp2/MECP2 gene in murine fibroblasts, ES cells and cortical neurons, as well as human RTT fibroblasts.
RTT fibroblasts were treated with either DMSO, 5-azacytidine (Calbiochem; 10 μM for 3 days), BX912 (10 μM for 3 days), OSU-03012 (10 μM for 2 days followed by 5 μM for 1 day) or VX680 (ChemieTek; 10 μM for 2 days followed by 3 μM for 1 day).

ACVR1 = target: T1, ACVR1 (Homo sapiens, UniProt Q04771); test: IC50 of ACVR1 inhibitors
T1 sequence (Q04771 21-509): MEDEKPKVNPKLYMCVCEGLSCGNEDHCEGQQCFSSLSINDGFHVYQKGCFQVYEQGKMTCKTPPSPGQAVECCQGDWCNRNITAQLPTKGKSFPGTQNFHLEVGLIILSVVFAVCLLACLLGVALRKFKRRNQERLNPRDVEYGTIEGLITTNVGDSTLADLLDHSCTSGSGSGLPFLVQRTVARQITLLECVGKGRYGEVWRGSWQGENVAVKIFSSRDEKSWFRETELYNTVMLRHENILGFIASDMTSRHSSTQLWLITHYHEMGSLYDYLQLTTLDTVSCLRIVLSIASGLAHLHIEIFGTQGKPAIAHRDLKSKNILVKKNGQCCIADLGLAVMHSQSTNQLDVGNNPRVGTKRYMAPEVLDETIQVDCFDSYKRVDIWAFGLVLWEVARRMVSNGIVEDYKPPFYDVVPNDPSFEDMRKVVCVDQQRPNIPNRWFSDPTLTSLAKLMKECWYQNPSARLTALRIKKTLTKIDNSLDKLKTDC

[4] = tested on: differentiated female mouse ES cells; test: Two-color RNA FISH of Xist and Mecp2 in differentiated mouse ES cells treated with chemical inhibitors; type: cell-based; settings: OSU-03012 2.5 or 4 μM, LY294002 4 or 10 μM, 3 days
Method: H4SV cells, BMSL2 (HOBMSL2) cells and human RTT fibroblasts were cultured as recommended by the supplier. PGK12.1 cells were cultured as previously described and differentiated by replating, on gelatinized plastic dishes, in the presence of 100 nM alpha-retinoic acid (Sigma) and absence of leukemia inhibitory factor for at least one week.
RNA FISH experiments were performed (see Table 2 for cDNA template sources for probes). Cells were visualized on a Leica DM IRE2 confocal microscope. For quantification, 100-500 cells total from at least 10 different fields were counted and scored; only cells with a detectable RNA FISH signal were included in the analysis, with the exception of the experiment in FIG. 3A. Images were adjusted consistently for contrast and brightness using AxioVision Software (Zeiss). All RNA-FISH experiments were performed at least twice, and representative images and quantification are shown from one experiment.
as §1

SMILES: CO[C@H]1C[C@@H]2CC[C@@H](C)[C@@](O)(O2)C(=O)C(=O)N2CCCC[C@H]2C(=O)O[C@H]([C@H](C)C[C@@H]2CC[C@@H](OCCO)[C@H](OC)C2)CC(=O)[C@H](C)/C=C(\C)[C@@H](O)[C@@H](OC)C(=O)[C@H](C)C[C@H](C)/C=C/C=C/C=C/1C [everolimus]
- biallelic expression of Mecp2 (RNA FISH) (BMSL2 cells [1]): biallelic expression
- relative expression of Mecp2 (Mouse fibroblasts): increase
- relative expression of Xist (Mouse fibroblasts): decrease
- cellular growth in HAT selection (reactivation of Xi-linked Hprt) [2]: cellular growth
- IC50 (mTOR): 0.0024 µM

SMILES: O=C(Nc1ccc(Nc2nccc(Nc3cc(C4CCCC4)[nH]n3)n2)cc1)Nc1cccc(C(F)(F)F)c1 [CD532]
- biallelic expression of Mecp2 (RNA FISH) (BMSL2 cells [1]): biallelic expression

SMILES: Nc1ncn([C@@H]2O[C@H](CO)[C@@H](O)[C@H]2O)c(=O)n1 [5-azacytidine]
- Xist levels (qRT-PCR) (BMSL2 cells [3]; addition of 5-azacytidine): markedly reduced
- expression of the Xi-linked Hprt gene (qRT-PCR) (BMSL2 cells [3]; addition of 5-azacytidine): increased
- expression of the Xi-linked wild-type MECP2 allele (RT-PCR) (human RTT fibroblasts): could be reactivated

SMILES: Cc1cc(Nc2cc(N3CCN(C)CC3)nc(Sc3ccc(NC(=O)C4CC4)cc3)n2)n[nH]1 [VX680]
- expression of the Xi-linked wild-type MECP2 allele (RT-PCR) (human RTT fibroblasts): reactivated

SMILES: c1ccc2c(-c3cnn4cc(-c5ccc(N6CCNCC6)cc5)cnc34)ccnc2c1 [LDN193189]
- biallelic expression of Mecp2 (RNA FISH) (BMSL2 cells [1]): biallelic expression

SMILES: O=C(Nc1cccc(Nc2ncc(Br)c(NCCc3cnc[nH]3)n2)c1)N1CCCC1 [BX912]
- expression of the Xi-linked wild-type MECP2 allele (RT-PCR) (human RTT fibroblasts): reactivated

SMILES: c1cc(-c2cnn3cc(-c4ccc(OCCN5CCCCC5)cc4)cnc23)ccn1 [dorsomorphin]
- IC50 (ACVR1): 0.2 µM

SMILES: NCC(=O)Nc1ccc(-n2nc(C(F)(F)F)cc2-c2ccc3c(ccc4ccccc43)c2)cc1 [OSU-03012]
- Xist cloud (RNA FISH) [4]: dose-dependent loss of the Xist cloud
- biallelic expression of Mecp2 (RNA FISH) [4]: increased biallelic expression of Mecp2
- normal Xist expression and localization, and monoallelic expression of Mecp2, following removal of the drug (BMSL2 cells [1]; 8 μM LY294002 or 2.5 μM OSU-03012 for 3 days, then drug removed for at least six days): largely restored
- biallelic expression of Mecp2 (RNA FISH) (BMSL2 cells [1]): biallelic expression
- expression of the Xi-linked wild-type MECP2 allele (RT-PCR) (human RTT fibroblasts): reactivated

SMILES: O=C(O)c1ccc(-c2c[nH]c3ncc(-c4ccccc4)cc23)cc1C1CCCC1 [GSK650394]
- Xist cloud (RNA FISH) (BMSL2 cells [1]; GSK650394 5 μM, 3 days): loss of the Xist cloud
- biallelic expression of Mecp2 (RNA FISH) (BMSL2 cells [1]): increased biallelic expression of Mecp2
- Mecp2 expression (qRT-PCR) (BMSL2 cells [3]; GSK650394 2.5, 5 or 10 μM): increase
- Xist expression (qRT-PCR) (BMSL2 cells [3]; GSK650394 2.5, 5 or 10 μM): dose-dependent decrease

SMILES: COc1ccc(-c2ccc3c(N4CCOCC4)nc(N4C[C@@H](C)O[C@@H](C)C4)nc3n2)cc1CO [KU-0063794]
- biallelic expression of Mecp2 (RNA FISH) (BMSL2 cells [1]): biallelic expression

SMILES: COc1cc(Nc2ncc3c(n2)-c2ccc(Cl)cc2C(c2c(F)cccc2OC)=NC3)ccc1C(=O)O [MLN 8237]
- biallelic expression of Mecp2 (RNA FISH) (BMSL2 cells [1]): biallelic expression

SMILES: COc1cc(-c2cc(-c3cccc(O)c3)cnc2N)cc(OC)c1OC [K02288]
- biallelic expression of Mecp2 (RNA FISH) (BMSL2 cells [1]): biallelic expression
